Measured values: patent publication US6838019B2, “Phosphorescent material and electroluminescent device using thereof” (Ritek Corporation, priority 2001, dated 2005)

Experiment: Solubility test in organic solvents
Format: physicochemical
Set-up: key: X: not dissolved; ◯: partially dissolved; ⊚: completely dissolved
Conditions: 1 mg, room temperature (20 degrees Celsius); for Solubility in methylcyclohexane: methyl cyclohexane
Procedure: 1 mg of Tb(TMHD)3—DMSO, Tb(TMHD)3—MPSO, Tb(TMHD)3—DPSO, Tb(TMHD)3, Tb(TMHD)3—OPNP are each dissolved under room temperature (20 degrees Celsius) in the following organic solvent: dichlormethane, acetonitrile, toluene, ethyl acetate, hexane, methyl cyclohexane methanol, methy ethyl ketone ether.

| Molecule | Solubility in acetonitrile | Solubility in dichloromethane | Solubility in ether | Solubility in ethyl acetate | Solubility in hexane | Solubility in methanol | Solubility in methylcyclohexane | Solubility in methyl ethyl ketone | Solubility in toluene |
| --- | --- | --- | --- | --- | --- | --- | --- | --- | --- |
| CC(C)(C)C(=O)C=C([O-])C(C)(C)C.CC(C)(C)C(=O)C=C([O-])C(C)(C)C.CC(C)(C)C(=O)C=C([O-])C(C)(C)C.CS(=O)c1ccccc1.[Tb+3] [Tb(TMHD)3-MPSO, tri(2,2,6,6-tetramethyl-3,5-heptanedionate) Tb(III) methyl phenyl sulfoxide] | ◯ | ⊚ | ⊚ | ⊚ | ⊚ | ⊚ | ⊚ | ⊚ | ⊚ |
| CC(C)(C)C(=O)C=C([O-])C(C)(C)C.CC(C)(C)C(=O)C=C([O-])C(C)(C)C.CC(C)(C)C(=O)C=C([O-])C(C)(C)C.O=S(c1ccccc1)c1ccccc1.[Tb+3] [Tb(TMHD)3-DPSO, tri(2,2,6,6-tetramethyl-3,5-heptanedionate) Tb(III) diphenyl sulfoxide] | ◯ | ⊚ | ⊚ | ⊚ | ⊚ | ⊚ | ⊚ | ⊚ | ⊚ |

Continued, values first:

| Solubility in acetonitrile | Solubility in dichloromethane | Solubility in ether | Solubility in ethyl acetate | Solubility in hexane | Solubility in methanol | Solubility in methylcyclohexane | Solubility in methyl ethyl ketone | Solubility in toluene | Molecule |
| --- | --- | --- | --- | --- | --- | --- | --- | --- | --- |
| ◯ | ⊚ | ⊚ | ⊚ | ◯ | ◯ | ◯ | ⊚ | ⊚ | Tris(2,2,6,6-tetramethyl-3,5-heptanedionato) Terbium (III) diphenyl phosphonimide tris-phenyl phosphorane [Tb(TMHD)3-OPNP, reference compound] |
| X | ◯ | ◯ | X | X | X | X | X | ◯ | CC(C)(C)C(=O)[CH-]C(=O)C(C)(C)C.CC(C)(C)C(=O)[CH-]C(=O)C(C)(C)C.CC(C)(C)C(=O)[CH-]C(=O)C(C)(C)C.[Tb+3] [Tb(TMHD)3, tris(2,2,6,6-tetramethyl-3,5-heptanedionato) Terbium(III), reference compound] |
| ◯ | ⊚ | ⊚ | ⊚ | ⊚ | ⊚ | ⊚ | ⊚ | ⊚ | CC(C)(C)C(=O)C=C([O-])C(C)(C)C.CC(C)(C)C(=O)C=C([O-])C(C)(C)C.CC(C)(C)C(=O)C=C([O-])C(C)(C)C.CS(C)=O.[Tb+3] [Tb(TMHD)3-DMSO, tri(2,2,6,6-tetramethyl-3,5-heptanedionate) Tb(III) dimethyl sulfoxide] |
